These results are taken from PubChem BioAssay (NCI).

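Results reflect a 48-hour exposure of cells in 96-well plates to compound at five concentrations. GI50 marks 50% less growth. TGI is the concentration that stops growth completely.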 Some results are limits rather than exact numbers.

What all share (assay): DTP human tumour cell line panel, 48 h
The test system of experiment [1] is M14 melanoma.
In experiment [2] the test system is SK-MEL-28 melanoma.
The subject of experiment [3] is EKVX NSCLC.
Experiment [4] has as its system SN12C renal.
Experiment [5] concerns U251 CNS.
Experiment [6] concerns IGROV1 ovarian.
Experiment [7] relates to SW-620 colon.
In experiment [8] the test system is K-562 leukemia.
Experiment [9] relates to UO-31 renal.
For experiment [10], the system named is HT29 colon.

The GI50 is the concentration at which growth is held to half of that of the control. A word on the TGI: it is the concentration at which net growth stops. Higher therefore signals lower sensitivity of the cells. For the molecule `Cn1ccnc1C(=O)/C=C/c1ccc(CC(=O)Nc2ccccc2)cc1`, the GI50 is 4.55 µM in experiment [1]; 5.69 µM in experiment [2]; 6.28 µM in experiment [3]; 3.84 µM in experiment [4]; 1.57 µM in [5]; 2.11 µM in experiment [6]. In addition, the GI50 in [7] was 2.75 µM; in experiment [8], 1.07 µM; in experiment [9], 2.77 µM; in experiment [10] it was 2.4 µM. Also, the TGI in experiment [1] is 10.8 µM; in experiment [2], 17.8 µM; in experiment [3], greater than 25 µM; in experiment [4] it was 14.3 µM; in [5] it was 5.27 µM; in experiment [6] it was 14.5 µM. Moreover, the TGI was 8.81 µM in experiment [7], greater than 25 µM in experiment [8], 5.86 µM in [9] and 6.82 µM in experiment [10].
With `CN(C)c1ccc2cc(-c3ccccc3F)c(N)nc2c1`, the GI50 in [1] is 0.448 µM; in experiment [2] it was 2.57 µM; in experiment [3], 6.57 µM; in [4], 4.55 µM; in experiment [5] it was 1.24 µM; in [6] it was 2.81 µM. In addition, the GI50 is 0.636 µM in [7], 0.393 µM in [8], 3.16 µM in experiment [9] and 0.529 µM in [10]. Also, the TGI in [1] turned out to be 4.5 µM; in experiment [2] it was 19.6 µM; in experiment [3], 26.7 µM; in [4] it was 19.2 µM; in [5], 12.7 µM; in [6], 24.4 µM. Further, the TGI in experiment [7] stood at 17.2 µM; in [8], 16.6 µM; in experiment [9], 16.5 µM; in experiment [10], 11 µM.
`N#C/C(=C\c1cccc(O)c1)C(N)=O`: the TGI in experiment [1], in experiment [2], in experiment [3], in experiment [4], in experiment [5] and in experiment [6] was greater than 100 µM in each case. For the same molecule, the TGI in experiment [7], in [8], in experiment [9] and in [10] was greater than 100 µM each time.
